Assay [1] concerns the target T1, mTOR (Homo sapiens, UniProt P42345).
T1 construct: endogenous in cells; host or cells: Jurkat, clone E6-1 (ATCC TIB-152) cell lysate
Description: mTOR kinobeads assay (competitive binding in Jurkat cell lysate, immunodetection). The settings on record: kinobeads assay, Table 6; read-out: Inhibition values (IC50) mTOR. An outline of the steps:
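IC50 derived from dose-response curves of mTOR captured on immobilized phenylmorpholin-chromen beads, detected by antibody dot blot with infrared fluorescence.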

The subject of assay [2] is S6RP serine-240/244 phosphorylation. Description: In vitro Phospho-S6 cellular assay (pS6RP S240/244) in HEK293T/17 cells. Format: cell-based. The note with it: Homo sapiens, 2 hours, read-out: pS6 IC50. An outline of the steps: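 Compounds were tested at eight concentrations on adhered HEK293T/17 cells for 2 h at 37 °C (2% FCS, 0.1% DMSO), at 80,000 cells/well for pAkt S473 and 40,000 for pS6RP S240/244. Lysates were captured on phospho-specific antibody MSD plates with Sulfo-Tag detection. Values came from nonlinear variable-slope regression.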

By IC50 is commonly meant the concentration that inhibits the measured activity by half.

Regarding `CCNC(=O)Nc1ccc(-c2nc3c(c(N4CCOC[C@@H]4C)n2)CCN(C(=O)NCC)C3)cc1` [Example 87, (S)—N-ethyl-2-(4-(3-ethylureido)phenyl)-4-(3-methylmorpholino)-5,6-dihydropyrido[3,4-d]pyrimidine-7(8H)-carboxamide], the IC50 is under 100 nM in assay [1] and 108 nM in assay [2].
Taken in the same sequence, the figures for `CCNC(=O)N1CCc2c(nc(-c3ccc(NC(=O)NC4CC4)cc3)nc2N2CCOC[C@@H]2C)C1` [Example 88, (S)-2-(4-(3-cyclopropylureido)phenyl)-N-ethyl-4-(3-methylmorpholino)-5,6-dihydropyrido[3,4-d]pyrimidine-7(8H)-carboxamide] were under 100 nM and 83 nM.
Taken in the same sequence, the figures for `CCNC(=O)Nc1ccc(-c2nc3c(c(N4CCOC[C@@H]4C)n2)CN(C(=O)OC)C3)cc1` [Example 89, (S)-methyl 2-(4-(3-ethylureido)phenyl)-4-(3-methylmorpholino)-5H-pyrrolo[3,4-d]pyrimidine-6(7H)-carboxylate] were under 100 nM and 82 nM.
For `CCNC(=O)Nc1ccc(-c2nc3c(c(N4CCOC[C@@H]4C)n2)CN(C(=O)OCC)C3)cc1` [Example 90, (S)-ethyl 2-(4-(3-ethylureido)phenyl)-4-(3-methylmorpholino)-5H-pyrrolo[3,4-d]pyrimidine-6(7H)-carboxylate] the same measures were under 100 nM and 83 nM.
For `CCNC(=O)Nc1ccc(-c2nc3c(c(N4CCOC[C@@H]4C)n2)CCN(C(=O)Cc2cccnc2)C3)cc1` [Example 91, (S)-1-ethyl-3-(4-(4-(3-methylmorpholino)-7-(2-(pyridin-3-yl)acetyl)-5,6,7,8-tetrahydropyrido[3,4-d]pyrimidin-2-yl)phenyl)urea], the IC50 in assay [1] was under 100 nM; in assay [2], 105 nM.
Taken in the same sequence, the figures for `CCNC(=O)Nc1ccc(-c2nc3c(c(N4CCOCC4)n2)CCN(C)C3)cc1` [Example 93, 1-ethyl-3-(4-(7-methyl-4-morpholino-5,6,7,8-tetrahydropyrido[3,4-d]pyrimidin-2-yl)phenyl)urea] were 100 to 1000 nM and 196 nM.
As for `CCNC(=O)Nc1ccc(-c2nc3c(c(N4CCOCC4)n2)CCN(C(=O)NCC)C3)cc1` [Example 94, N-ethyl-2-(4-(3-ethylureido)phenyl)-4-morpholino-5,6-dihydropyrido[3,4-d]pyrimidine-7(8H)-carboxamide], the IC50 is 100 to 1000 nM in assay [1] and 565 nM in assay [2].
For `CCNC(=O)Nc1ccc(-c2nc3c(c(N4CCOCC4)n2)CCN(C(=O)OCC)C3)cc1` [Example 96, ethyl 2-(4-(3-ethylureido)phenyl)-4-morpholino-5,6-dihydropyrido[3,4-d]pyrimidine-7(8H)-carboxylate] the same measures were 100 to 1000 nM and 50 nM.
For the compound `CCNC(=O)Nc1ccc(-c2nc3c(c(N4CCOCC4)n2)CCN(C(C)=O)C3)cc1` [Example 97, 1-(4-(7-acetyl-4-morpholino-5,6,7,8-tetrahydropyrido[3,4-d]pyrimidin-2-yl)phenyl)-3-ethylurea], the values for the IC50 in assay [1] and in assay [2] were under 100 nM and 338 nM, respectively.
Taken in the same sequence, the figures for `CCNC(=O)Nc1ccc(-c2nc3c(c(N4CCOCC4)n2)CCN(C(=O)C(C)(C)C)C3)cc1` [Example 98, 1-ethyl-3-(4-(4-morpholino-7-pivaloyl-5,6,7,8-tetrahydropyrido[3,4-d]pyrimidin-2-yl)phenyl)urea] were under 100 nM and 45 nM.
For `CCNC(=O)Nc1ccc(-c2nc3c(c(N4CCOCC4)n2)CN(C(=O)C(C)(C)C)C3)cc1` [Example 100, 1-ethyl-3-(4-(4-morpholino-6-pivaloyl-6,7-dihydro-5H-pyrrolo[3,4-d]pyrimidin-2-yl)phenyl)urea] the same measures were 100 to 1000 nM and 202 nM.
Turning to `C[C@H]1COCCN1c1nc(-c2ccc(NC(=O)NC3CC3)cc2)nc2c1CN(CC(F)(F)F)C2` [Example 101, (S)-1-cyclopropyl-3-(4-(4-(3-methylmorpholino)-6-(2,2,2-trifluoroethyl)-6,7-dihydro-5H-pyrrolo[3,4-d]pyrimidin-2-yl)phenyl)urea], the IC50 in assay [1] is 100 to 1000 nM; in assay [2], 252 nM.
Regarding `CCNC(=O)Nc1ccc(-c2nc3c(c(N4CCOC[C@@H]4C)n2)CCN(C(=O)CO)C3)cc1` [Example 102, (S)-1-ethyl-3-(4-(7-(2-hydroxyacetyl)-4-(3-methylmorpholino)-5,6,7,8-tetrahydropyrido[3,4-d]pyrimidin-2-yl)phenyl)urea], the IC50 in assay [1] was under 100 nM; in assay [2], 258 nM.
For `CCNC(=O)Nc1ccc(-c2nc3c(c(N4CCOC[C@@H]4C)n2)CN(C(=O)OCC)C3)cc1F` [Example 103, (S)-ethyl-2-(4-(3-ethylureido)-3-fluorophenyl)-4-(3-methylmorpholino)-5H-pyrrolo[3,4-d]pyrimidine-6(7H)-carboxylate] the same measures were 100 to 1000 nM and 207 nM.
Taken in the same sequence, the figures for `CCOC(=O)N1Cc2nc(-c3ccc(NC(=O)NCCO)c(F)c3)nc(N3CCOC[C@@H]3C)c2C1` [Example 104, (S)-ethyl-2-(3-fluoro-4-(3-(2-hydroxyethyl)ureido)phenyl)-4-(3-methylmorpholino)-5H-pyrrolo[3,4-d]pyrimidine-6(7H)-carboxylate] were 100 to 1000 nM and 390 nM.
For `CCOC(=O)N1Cc2nc(-c3ccc(NC(=O)NC4CC4)c(F)c3)nc(N3CCOC[C@@H]3C)c2C1` [Example 105, (S)-ethyl 2-(4-(3-cyclopropylureido)-3-fluorophenyl)-4-(3-methylmorpholino)-5H-pyrrolo[3,4-d]pyrimidine-6(7H)-carboxylate], the figures for the IC50 in assay [1] and in assay [2] were 100 to 1000 nM and 414 nM, respectively.
For `CCNC(=O)Nc1ncc(-c2nc3c(c(N4CCOC[C@@H]4C)n2)CCN(C)C3)s1` [Example 106, (S)-1-ethyl-3-(5-(7-methyl-4-(3-methylmorpholino)-5,6,7,8-tetrahydropyrido[3,4-d]pyrimidin-2-yl)thiazol-2-yl)urea] the same measures were 100 to 1000 nM and 294 nM.
Taken in the same sequence, the figures for `CCNC(=O)Nc1ccc(-c2nc3c(c(N4CCOC[C@@H]4C)n2)CN(C(=O)OCC)CC3)cc1` [Example 107, (S)-ethyl 2-(4-(3-ethylureido)phenyl)-4-(3-methylmorpholino)-7,8-dihydropyrido[4,3-d]pyrimidine-6(5H)-carboxylate] were 100 to 1000 nM and 159 nM.
As to `CCNC(=O)Nc1cc(F)c(-c2nc3c(c(N4CCOC[C@@H]4C)n2)CCN(C)C3)cc1F` [Example 108, (S)-1-(2,5-difluoro-4-(7-methyl-4-(3-methylmorpholino)-5,6,7,8-tetrahydropyrido[3,4-d]pyrimidin-2-yl)phenyl)-3-ethylurea], the results for the half-inhibitory concentration (IC50) in assay [1] and in assay [2] were 100 to 1000 nM and 935 nM, respectively.
As for `CCNC(=O)Nc1ccc(-c2nc3c(c(N4CCOC[C@@H]4C)n2)CCN(C)C3)c(F)c1` [Example 110, (S)-1-ethyl-3-(3-fluoro-4-(7-methyl-4-(3-methylmorpholino)-5,6,7,8-tetrahydropyrido[3,4-d]pyrimidin-2-yl)phenyl)urea], the IC50 in assay [1] was 100 to 1000 nM; in assay [2] it was 192 nM.
Taken in the same sequence, the figures for `CCNC(=O)Nc1ccc(-c2nc3c(c(N4CCOC[C@@H]4C)n2)CN(C(=O)OCC)C3)c(F)c1` [Example 113, (S)-ethyl-2-(4-(3-ethylureido)-2-fluorophenyl)-4-(3-methylmorpholino)-5H-pyrrolo[3,4-d]pyrimidine-6(7H)-carboxylate] were 100 to 1000 nM and 77 nM.
For `CCOC(=O)N1Cc2nc(-c3ccc(NC(=O)NCCF)cc3)nc(N3CCOC[C@@H]3C)c2C1` [Example 120, (S)-ethyl 2-(4-(3-(2-fluoroethyl)ureido)phenyl)-4-(3-methylmorpholino)-5H-pyrrolo[3,4-d]pyrimidine-6(7H)-carboxylate] the same measures were under 100 nM and 25 nM.
For `CCOC(=O)N1Cc2nc(-c3ccc(NC(=O)Nc4ccncc4)cc3)nc(N3CCOC[C@@H]3C)c2C1` [Example 121, (S)-ethyl 4-(3-methylmorpholino)-2-(4-(3-(pyridin-4-yl)ureido)phenyl)-5H-pyrrolo[3,4-d]pyrimidine-6(7H)-carboxylate] the same measures were under 100 nM and 33 nM.
As for `CCNC(=O)Nc1ccc(-c2nc3c(c(N4CCOC[C@@H]4C)n2)CN(C2CCN(C(=O)OC)CC2)C3)cc1F` [Example 122, (S)-methyl 4-(2-(4-(3-ethylureido)-3-fluorophenyl)-4-(3-methylmorpholino)-5H-pyrrolo[3,4-d]pyrimidin-6(7H)-yl)piperidine-1-carboxylate], the IC50 in assay [1] was 100 to 1000 nM; in assay [2], 175 nM.
For `C[C@H]1COCCN1c1nc(-c2ccc(NC(=O)NC3CC3)cc2)nc2c1CN(C(=O)C1CCOCC1)C2` [Example 129, (S)-1-cyclopropyl-3-(4-(4-(3-methylmorpholino)-6-(tetrahydro-2H-pyran-4-carbonyl)-6,7-dihydro-5H-pyrrolo[3,4-d]pyrimidin-2-yl)phenyl)urea] the same measures were under 100 nM and 336 nM.
For `CCOC(=O)N1Cc2nc(-c3ccc(NC(=O)NC4CC4)cc3F)nc(N3CCOC[C@@H]3C)c2C1` [Example 131, (S)-ethyl 2-(4-(3-cyclopropylureido)-2-fluorophenyl)-4-(3-methylmorpholino)-5H-pyrrolo[3,4-d]pyrimidine-6(7H)-carboxylate] the same measures were 100 to 1000 nM and 99 nM.

These data come from patent US8785457B2 (Cellzome Limited, priority 2009, dated 2014).
